Data: paper PMC9603901, “Therapeutic Potential of Antimicrobial Peptide PN5 against Multidrug-Resistant E. coli and Anti-Inflammatory Activity in a Septic Mouse Model” (Microbiology Spectrum, 2022)
Where no end group is shown, it is not given here.

System: E. coli ATCC 25922 biofilm
Details: 5 × 10^5 CFU mL^−1, 0.2% glucose, 24 h, 37°C, crystal violet A595, three independent experiments
Experimental: Crystal violet staining was performed to determine the degree of biofilm formation by the E. coli 25922, S. aureus 25923, and ASEC strains. E. coli 25922 and S. aureus 25923 were cultured overnight in LB and TSB media with aeration at 180 rpm, respectively. Bacterial suspensions with 0.2% glucose (5 × 10^5 CFU mL^−1) were added to a 96-well plate (30096, surface treatment; SPL Life Sciences) and incubated for 24 h at 37°C. The supernatant was removed and fixed with 100% methanol. Next, 100 μL of crystal violet was added to the plate and incubated to dye the cells for 1 h, followed by rinsing the cells three times with distilled water (dH2O). After the crystal violet was dissolved with 95% ethanol, the mass of biofilm formation at 595 nm was measured using a Versa Max microplate reader (Molecular Devices). The inhibitory effect of PN5 against biofilm formed by E. coli 25922, S. aureus 25923, and three MDR E. coli strains (ASEC 2, 16, and 18) were determined. These cells were cultured overnight in LB and TSB media. Bacterial suspensions (5 × 10^5 CFU mL^−1) containing 0.2% glucose were added to 96-well plates and PN5 was serially diluted to a final concentration of 32 μM. The minimal biofilm inhibitory concentration (MBIC) was determined in three independent experiments. The percentage of biofilm formation was measured using the equation (A595 of treated biofilm/A595 of untreated biofilm) × 100. Similarly, the MDR ASEC 1 to 19 strains were cultured overnight in LB medium and seeded into 96-well plates with medium containing 0.2% glucose at 5 × 10^5 CFU mL^−1 of the bacterial suspension. Biofilm staining was performed as described above. SYTO 9 (6 μM) fluorescence in LIVE/DEAD BacLight was used to visualize the degree of biofilm formation. […] After 24 h, the culture supernatant of the peptide and bacteria was discarded, and the pellet was fixed with 100% methanol. A fluorescence mixture of SYTO 9 and propidium iodide was then added to each well, and the fluorescence was evaluated with an EVOS FL color imaging system (Thermo Fisher Scientific) with a 4× objective ([22]).

FKFLARTGKFL-NH2 [PN5]
MBIC50 (minimum inhibitory concentration resulting in at least 50% inhibition of biofilm formation): 16 (21.22) μM
